Reference: patent publication US3985779A, “M-phenoxyphenyl propionic acid derivatives and preparation thereof” (Eisai Co., Ltd., priority 1973, dated 1976)
Where two headings read alike, the source gives them in different places.

What was measured:
yeast-induced pyrexia = experiment: Antipyretic activity to the yeast-treated rats (Experiment I); type: in vivo, rats (Wistar strain male)
Description: To Wistar strain male rats having about 300 - 350 grs. body weight, an aqueous suspension of yeast was subcutaneously injected to induce pyrexia.
At the lapse of 4 hours since the dose of the yeast suspension, the compounds under test given in hereinaftermentioned Table 10 in a form of suspension in a 5% gum arabic aqueous solution are orally administered. The rectal temperatures of the rats were measured periodically by means of a thermister-type thermometer sold by Japan Koden K.K. As control, said 5% gum arabic aqueous solution alone was administered.

stomachs of the rats = type: in vivo; conditions: 100 mg/kg oral; score 0 (nothing unusual) to 10 (considerable irritability with bleeding)
Text: Observation of gastric irritability
Gastric irritability due to oral administration of the compounds as edema inhibitory agent was studied by macroscopical observation of the dissected stomachs of the rats which had been employed for determination of the edema inhibitions mentioned in the preceding paragraphs. The degrees of the irritability observed were scored in the 0 to 10 ratings depending upon the extent of errosions and bleedings of the stomachs, wherein the rating of 0(zero) means "nothing unusual", the rating of 10 means a state of considerable gastric irritability with bleeding and the remainders mean the intermediate degree of gastric irritability.

in vivo = conditions: mouse, po
Description: Comparison of toxicity of the phenyl propionic acid derivatives of the present invention and that of the other known anti-inflammatory agents was carried out in mice.

writhing syndrome = experiment: Analgesic activity: antagonism to acetic acid writhing syndrome in mice (Experiment J); type: in vivo, mice (dd strain male); conditions: for minimal effective dose: Mus musculus, 1 h, single oral administration, read-out: dose with significant antagonism / retardation of writhing syndrome
Description: Analgesic activity of the compound of the present invention in comparison with the known compounds.
Analgesic activity of the compound was tested as the measure of antagonism to writhing syndrome appeared when 0.1 ml/10g of 0.7% acetic acid was intraperitoneally injected to the dd strain male mice having 17 - 20 grs. body weight which had been abstinence from food for 18 hours.
The compounds under test were orally administered in a form of suspension in a 5% aqueous solution of gum arabic. After one hour from the administration, the onset times required for the writhing syndrome were scored.
In another Experiment in the combined use of the compounds under test and Codeine phosphate, 10 - 20 mg/kg of Codeine phosphate were orally administered immediatly after the oral administration of the compounds under test.

ARRS-induced edema = experiment: Inhibitory activity on anti-rat-rabbit serum (ARRS)-induced edema in rats (Experiment D); type: in vivo
Description: Inhibitory activity on anti-rat-rabbit serum (ARRS)-induced edema in rats Similar Experiments was carried out by using ARRS as irritant substance.

[1] = test system: Adjuvant-induced arthritis; experiment: Inhibitory activity on Adjuvant arthritis in rats (Experiment E); type: in vivo
Text: The inflammatory score and the volumes of the right and left paws of the rats were observed.

[2] = test system: granuloma induced by Formalin Filter paper Pellet; conditions: for Adrenal / Granuloma-Wet-Weight (in words) / Thymus: 6 days
Dextran-induced edema = experiment: Inhibitory activity on dextran-induced edema in rats (Experiment C); type: in vivo
Description: Inhibitory activity on dextran-induced edema in rats Experiment was carried out in the manner same as those of the preceding Experiments in which dextran was employed as irritant substance.

Kaolin-induced edema = experiment: Inhibitory activity on Kaolin-induced Edema in Rats (Experiment B); type: in vivo
[3] = 10 mg/kg p.o. combined with Codeine Phosphate 10 mg/kg
[4] = 10 mg/kg p.o. combined with Codeine Phosphate 20 mg/kg
[5] = test compound alone, 10 mg/kg p.o.
[6] = daily oral 40 mg/kg for 9 days, final

## CC(=O)Oc1ccccc1C(=O)O [Aspirin]
yeast-induced pyrexia; 320 mg/kg p.o.
  body temperature relative to normal (in words): body temperature injuriously depressed below the normal body temperature
yeast-induced pyrexia; 1 hr, 80 mg/kg p.o.
  Change in rectal temperature, mean ± S.E.: -0.18 ± 0.10
yeast-induced pyrexia; 1 hr, 160 mg/kg p.o.
  Change in rectal temperature, mean ± S.E.: -0.48 ± 0.23
yeast-induced pyrexia; 1 hr, 320 mg/kg p.o.
  Change in rectal temperature, mean ± S.E.: -0.75 ± 0.10
yeast-induced pyrexia; 3 hrs, 80 mg/kg p.o.
  Change in rectal temperature, mean ± S.E.: -0.25 ± 0.18
yeast-induced pyrexia; 3 hrs, 160 mg/kg p.o.
  Change in rectal temperature, mean ± S.E.: -1.05 ± 0.18
yeast-induced pyrexia; 3 hrs, 320 mg/kg p.o.
  Change in rectal temperature, mean ± S.E.: -1.68 ± 0.28
yeast-induced pyrexia; 5 hrs, 80 mg/kg p.o.
  Change in rectal temperature, mean ± S.E.: -0.20 ± 0.12
yeast-induced pyrexia; 5 hrs, 160 mg/kg p.o.
  Change in rectal temperature, mean ± S.E.: -0.95 ± 0.18
yeast-induced pyrexia; 5 hrs, 320 mg/kg p.o.
  Change in rectal temperature, mean ± S.E.: -1.30 ± 0.29
Stomachs of the rats
  Degree of gastric irritability: 10
In vivo
  LD50: 1600 mg/kg
Writhing syndrome; [3]
  Onset time of writhing syndrome, mean ± S.E.: 5.4 ± 0.4 min
Writhing syndrome; [4]
  Onset time of writhing syndrome, mean ± S.E.: 9.6 ± 1.8 min
Writhing syndrome; 160 mg/kg p.o. combined with Codeine Phosphate 10 mg/kg
  Onset time of writhing syndrome, mean ± S.E.: 6.2 ± 0.6 min
Writhing syndrome; 160 mg/kg p.o. combined with Codeine Phosphate 20 mg/kg
  Onset time of writhing syndrome, mean ± S.E.: 11.1 ± 1.6 min
Writhing syndrome
  minimal effective dose: 160 mg/kg
Writhing syndrome; [5]
  Onset time of writhing syndrome, mean ± S.E.: 5.2 ± 1.4 min
Writhing syndrome; test compound alone, 160 mg/kg p.o.
  Onset time of writhing syndrome, mean ± S.E.: 5.9 ± 0.8 min

## CC(C)Cc1ccc(C(C)C(=O)O)cc1 (stereo not drawn) [Ibuprofen, 2,4'-isobutylphenylpropionic acid, reference compound]
ARRS-induced edema; after 2 hrs, oral 8 mg/kg
  % of Inhibition: 10%
  Edema D. ± S.E.: .615 ± .062
ARRS-induced edema; after 2 hrs, oral 40 mg/kg
  % of Inhibition: 10%
  Edema D. ± S.E.: .608 ± .047
ARRS-induced edema; after 3 hrs, oral 8 mg/kg
  % of Inhibition: 12%
  Edema D. ± S.E.: .627 ± .049
ARRS-induced edema; after 3 hrs, oral 40 mg/kg
  % of Inhibition: 27%
  Edema D. ± S.E.: .520 ± .026
[1]; [6]
  Final Score, Mean, left paw: 2.2
  Final Score, Mean, right paw: 3.8
  Final Score, Total, left paw: 11
  Final Score, Total, right paw: 19
[1]; daily oral 40 mg/kg, initial
  Initial Score, Mean, left paw: 1.8
  Initial Score, Mean, right paw: 3.8
  Initial Score, Total, left paw: 9
  Initial Score, Total, right paw: 19
[2]; daily oral 8 mg/kg
  Adrenal: 39.2 mg
  Granuloma-Wet-Weight (in words): Non Effective
  Thymus: 631 mg
[2]; daily oral 40 mg/kg
  Adrenal: 34.3 mg
  Granuloma-Wet-Weight (in words): Non Effective
  Thymus: 471 mg
[2]; oral 8 and 40 mg/kg/day for successive 6 days
  inhibitory activity on granuloma (in words): entirely not effective
Dextran-induced edema; after 2 hrs, oral 8 mg/kg
  % of Inhibition: 5%
  Edema D. ± S.E.: .791 ± .038
Dextran-induced edema; after 2 hrs, oral 40 mg/kg
  % of Inhibition: 9%
  Edema D. ± S.E.: .760 ± .075
Dextran-induced edema; after 3 hrs, oral 8 mg/kg
  % of Inhibition: 9%
  Edema D. ± S.E.: .683 ± .024
Dextran-induced edema; after 3 hrs, oral 40 mg/kg
  % of Inhibition: 6%
  Edema D. ± S.E.: .705 ± .056
yeast-induced pyrexia; 1 hr, 1.25 mg/kg p.o.
  Change in rectal temperature, mean ± S.E.: +0.03 ± 0.05
yeast-induced pyrexia; 1 hr, 5 mg/kg p.o.
  Change in rectal temperature, mean ± S.E.: -0.75 ± 0.09
yeast-induced pyrexia; 1 hr, 20 mg/kg p.o.
  Change in rectal temperature, mean ± S.E.: -0.65 ± 0.18
yeast-induced pyrexia; 1 hr, 80 mg/kg p.o.
  Change in rectal temperature, mean ± S.E.: -0.70 ± 0.25
yeast-induced pyrexia; 1 hr, 160 mg/kg p.o.
  Change in rectal temperature, mean ± S.E.: -0.70 ± 0.08
yeast-induced pyrexia; 3 hrs, 1.25 mg/kg p.o.
  Change in rectal temperature, mean ± S.E.: +0.05 ± 0.12
yeast-induced pyrexia; 3 hrs, 5 mg/kg p.o.
  Change in rectal temperature, mean ± S.E.: -0.80 ± 0.21
yeast-induced pyrexia; 3 hrs, 20 mg/kg p.o.
  Change in rectal temperature, mean ± S.E.: -0.93 ± 0.13
yeast-induced pyrexia; 3 hrs, 80 mg/kg p.o.
  Change in rectal temperature, mean ± S.E.: -1.03 ± 0.19
yeast-induced pyrexia; 3 hrs, 160 mg/kg p.o.
  Change in rectal temperature, mean ± S.E.: -0.95 ± 0.28
yeast-induced pyrexia; 5 hrs, 1.25 mg/kg p.o.
  Change in rectal temperature, mean ± S.E.: -0.18 ± 0.12
yeast-induced pyrexia; 5 hrs, 5 mg/kg p.o.
  Change in rectal temperature, mean ± S.E.: -0.20 ± 0.33
yeast-induced pyrexia; 5 hrs, 20 mg/kg p.o.
  Change in rectal temperature, mean ± S.E.: -0.95 ± 0.15
yeast-induced pyrexia; 5 hrs, 80 mg/kg p.o.
  Change in rectal temperature, mean ± S.E.: -0.90 ± 0.22
yeast-induced pyrexia; 5 hrs, 160 mg/kg p.o.
  Change in rectal temperature, mean ± S.E.: -1.03 ± 0.29
yeast-induced pyrexia; Rattus norvegicus, po, read-out: dose with apparent antipyretic activity
  minimal effective dose: > 5 mg/kg
yeast-induced pyrexia; p.o.
  dose with maximum antipyretic activity: 20 mg/kg
Writhing syndrome; [3]
  Onset time of writhing syndrome, mean ± S.E.: 4.4 ± 0.3 min
Writhing syndrome; [4]
  Onset time of writhing syndrome, mean ± S.E.: 9.2 ± 1.4 min
Writhing syndrome; 20 mg/kg p.o. combined with Codeine Phosphate 10 mg/kg
  Onset time of writhing syndrome, mean ± S.E.: 6.0 ± 1.1 min
Writhing syndrome; 20 mg/kg p.o. combined with Codeine Phosphate 20 mg/kg
  Onset time of writhing syndrome, mean ± S.E.: 6.1 ± 0.4 min
Writhing syndrome; 40 mg/kg p.o. combined with Codeine Phosphate 10 mg/kg
  Onset time of writhing syndrome, mean ± S.E.: 8.0 ± 1.6 min
Writhing syndrome; 40 mg/kg p.o. combined with Codeine Phosphate 20 mg/kg
  Onset time of writhing syndrome, mean ± S.E.: 11.0 ± 1.4 min
Writhing syndrome; 80 mg/kg p.o. combined with Codeine Phosphate 10 mg/kg
  Onset time of writhing syndrome, mean ± S.E.: 9.2 ± 1.3 min
Writhing syndrome; 80 mg/kg p.o. combined with Codeine Phosphate 20 mg/kg
  Onset time of writhing syndrome, mean ± S.E.: 13.3 ± 0.8 min
Writhing syndrome
  minimal effective dose: 80 mg/kg
Writhing syndrome; [5]
  Onset time of writhing syndrome, mean ± S.E.: 5.5 ± 1.4 min
Writhing syndrome; test compound alone, 20 mg/kg p.o.
  Onset time of writhing syndrome, mean ± S.E.: 5.6 ± 1.4 min
Writhing syndrome; test compound alone, 40 mg/kg p.o.
  Onset time of writhing syndrome, mean ± S.E.: 4.5 ± 0.4 min
Writhing syndrome; test compound alone, 80 mg/kg p.o.
  Onset time of writhing syndrome, mean ± S.E.: 6.5 ± 1.1 min
Kaolin-induced edema; after 3 hrs, oral 8 mg/kg
  % of Inhibition: 25%
  Edema D. ± S.E.: .313 ± .093
Kaolin-induced edema; after 3 hrs, oral 40 mg/kg
  % of Inhibition: 36%
  Edema D. ± S.E.: .267 ± .055
Kaolin-induced edema; after 5 hrs, oral 8 mg/kg
  % of Inhibition: 20%
  Edema D. ± S.E.: .450 ± .075
Kaolin-induced edema; after 5 hrs, oral 40 mg/kg
  % of Inhibition: 29%
  Edema D. ± S.E.: .401 ± .068
Kaolin-induced edema; after 7 hrs, oral 8 mg/kg
  % of Inhibition: 6%
  Edema D. ± S.E.: .571 ± .046
Kaolin-induced edema; after 7 hrs, oral 40 mg/kg
  % of Inhibition: 15%
  Edema D. ± S.E.: .514 ± .105
Kaolin-induced edema; oral 40 - 50 mg/kg
  inhibitory effect on edema: 15%
